According to publication PMC7649837, “Protein–fragment complex structures derived by NMR molecular replacement” (RSC Medicinal Chemistry, 2020):

target: PIN1 (Homo sapiens, UniProt Q13526); assay: NMR methyl chemical shift perturbation titration; intermolecular NOEs and NMR2 complex structure; type: binding
Sequence (Q13526 whole entry): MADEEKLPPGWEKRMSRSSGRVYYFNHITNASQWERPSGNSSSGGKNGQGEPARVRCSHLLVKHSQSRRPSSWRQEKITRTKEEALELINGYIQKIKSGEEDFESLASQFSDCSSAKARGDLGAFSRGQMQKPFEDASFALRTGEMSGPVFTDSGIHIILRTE

Structure (SMILES) | Kd
Cc1cccc(-c2nc(C(=O)O)c(C)[nH]2)c1 [compound 1] | 260 µM
Cc1nc(-c2cccc(Cl)c2)[nH]c1C(=O)O [compound 2] | 670 µM
Cc1nc(-c2cccc(C(F)(F)F)c2)[nH]c1C(=O)O [compound 3] | 6700 µM
